This series deals with TWIST1. The series is described as follows: TWIST1 knockdown after Lipofectamine 2000 transfection of siRNA in MDA-MB-435S cells (western blot). Format: cell-based, human. The following applies: unmodified vs passenger-strand modified si419. How it is done: Transient transfection of MDA-MB-435S GFP+ffluc was carried out using LIPOFECTAMINE® 2000 (Thermo Fisher Scientific, Waltham, MA) according to the manufacturer's instructions. LIPOFECTAMINE® 2000 transfection was used to confirm the functionality of the siRNA (si419 and si494) prior to testing their efficacy with MSNs. Transfection of siRNA with MSNs was carried out by incubating the MSNs with the siRNA overnight at 4° C. while rotating the tube constantly. The mixture consisted of 7 parts MSN (diluted to 500 ng/ul in sterile PBS) to 1 part siRNA (diluted to 10 uM). The final concentration for of MSNs and siRNA applied to cells was 17.5 ng/ul and 50 nM, respectively.
Western Blot. Following siRNA treatment described above, cells were lifted from tissue culture wells with 0.25% trypsin, pelleted, and lysed in RIPA buffer. Protein concentration was determined using a BCA Assay (Thermo Fisher Scientific). A total of 30 μg of protein per lane was run on 4% stacking and 12% resolving polyacrylamide gels. Following gel electrophoresis, protein was transferred to Immobilon-P PVDF membrane (Millipore, Billerica, MA) using a Trans-Blot SD Semi-Dry Transfer Cell (Bio-Rad, Hercules, CA). Membranes were then blocked with 5% dry milk dissolved in 1×PBS with 0.1% Tween-20. Antibodies were diluted in blocking buffer (1:250 for anti-TWIST1 and 1:2,500 for anti-Actin). […]

Regarding “si419: anti-TWIST siRNA; passenger 5′-GGACAAGCUGAGCAAGAUU-3′ (SEQ ID No: 1), guide 5′-AAUCUUGCUCAGCUUGUCCUU-3′ (SEQ ID No: 2) (listed as RNA, chemistry not fully specified)”, the “knockdown (efficiency, FIG. 6)” value is on record as “approximately 80%”.
